# Experimental data: patent US20190106460A1, “BINDING INHIBITORS OF THE BETA. TRANSDUCIN REPEAT-CONTAINING PROTEIN” (priority 2011, published 2019)
# Starred links: 1 amine or outer side, 2 acyl side, 3 side chain; linkers in the order of their positions; H or OH if unused. Non-standard residues stand in square brackets, D forms with d. Residues, ends and D or L forms follow the SMILES beside them. *: point of attachment. Phe(4-NO2) = N[C@@H](Cc1ccc([N+](=O)[O-])cc1)C(=O)O; Benzoyl(2-COOH) = O=C(O)c1ccccc1C(=O)*; Phe(3-F) = N[C@@H](Cc1cccc(F)c1)C(=O)O; 1Nal = N[C@@H](Cc1cccc2ccccc12)C(=O)O; 3Pal = N[C@@H](Cc1cccnc1)C(=O)O; pS = N[C@@H](COP(=O)(O)O)C(=O)O; Fumaroyl = O=C(O)/C=C/C(=O)*; Suc = O=C(CCC(=O)[*:2])[*:1]; X6 = O=C(O)C1CCC(C(=O)*)CC1; MeOSuc = COC(=O)CCC(=O)*
# Target: βTrCP (Homo sapiens, UniProt Q9Y297)
# Sequence (Q9Y297 whole entry): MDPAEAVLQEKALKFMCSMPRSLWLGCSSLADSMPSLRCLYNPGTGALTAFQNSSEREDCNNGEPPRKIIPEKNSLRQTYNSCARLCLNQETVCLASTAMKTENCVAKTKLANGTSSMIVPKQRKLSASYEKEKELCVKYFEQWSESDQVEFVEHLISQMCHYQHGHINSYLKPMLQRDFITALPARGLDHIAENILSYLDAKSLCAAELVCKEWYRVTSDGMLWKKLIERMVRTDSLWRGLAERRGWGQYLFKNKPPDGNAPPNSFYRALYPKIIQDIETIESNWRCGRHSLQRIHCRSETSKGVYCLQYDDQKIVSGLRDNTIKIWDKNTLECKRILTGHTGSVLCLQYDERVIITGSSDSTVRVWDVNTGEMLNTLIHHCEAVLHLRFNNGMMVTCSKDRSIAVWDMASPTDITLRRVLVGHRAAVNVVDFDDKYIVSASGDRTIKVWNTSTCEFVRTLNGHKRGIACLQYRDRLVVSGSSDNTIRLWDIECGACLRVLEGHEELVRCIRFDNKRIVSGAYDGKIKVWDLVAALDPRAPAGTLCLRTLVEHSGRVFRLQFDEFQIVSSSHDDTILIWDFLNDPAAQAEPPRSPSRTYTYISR
# Sequence (P63208 whole entry partner): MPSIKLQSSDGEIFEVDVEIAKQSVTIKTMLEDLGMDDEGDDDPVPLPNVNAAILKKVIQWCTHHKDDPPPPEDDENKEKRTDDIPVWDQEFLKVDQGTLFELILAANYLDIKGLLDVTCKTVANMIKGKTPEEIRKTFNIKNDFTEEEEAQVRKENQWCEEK
# Assay: Fluorescence polarisation (FP) binding assay with fluorescein-tagged IκB peptide
# Details: Tables 1, 3, 7, 8; 10 nM fluorescein-tagged IκB peptide; read-out: FP Assay IC50/μM
row,SMILES,IC50 [µM]
1,"NC(=O)[C@H](CCC(=O)O)NC(=O)[C@H](Cc1ccccc1)NC(=O)[C@H](Cc1ccccc1)NC(=O)CNC(=O)[C@H](CCC(=O)O)NC(=O)C1CCC(C(=O)O)CC1 (stereo partly shown) [1,4-Chda-EGFFE-NH2] (X6-EGFFE-NH2)",> 100
2,COC(=O)CCC(=O)N[C@@H](CCC(=O)O)C(=O)NCC(=O)N[C@@H](Cc1cccc(F)c1)C(=O)N[C@@H](Cc1cccc2ccccc12)C(=O)N[C@@H](CCC(=O)O)C(N)=O [(MeO)Suc-EG-F(3F)-1Nal-E-NH2] (MeOSuc-EG[Phe(3-F)][1Nal]E-NH2),1.6
3,CC[C@H](C)[C@H](NC(=O)CNC(=O)[C@H](COP(=O)(O)O)NC(=O)[C@H](CC(=O)O)NC(=O)[C@H](C)N)C(=O)N[C@@H](Cc1c[nH]cn1)C(=O)N[C@@H](CO)C(N)=O [AD-pS-GIHS-NH2] (H-AD[pS]GIHS-NH2),> 100
4,C[C@H](N)C(=O)NCC(=O)N[C@@H](Cc1cccc(F)c1)C(=O)N[C@@H](Cc1ccc([N+](=O)[O-])cc1)C(=O)N[C@@H](CCC(=O)O)C(N)=O [AG-F(3F)-F(4NO2)-E-NH2] (H-AG[Phe(3-F)][Phe(4-NO2)]E-NH2),> 100
5,CC[C@H](C)[C@H](NC(=O)CNC(=O)[C@H](COP(=O)(O)O)NC(=O)[C@@H](N)CC(=O)O)C(=O)N[C@@H](Cc1ccccc1)C(=O)N[C@@H](Cc1c[nH]cn1)C(N)=O [D-pS-GIFH-NH2] (H-D[pS]GIFH-NH2),> 100
6,CC[C@H](C)[C@H](NC(=O)CNC(=O)[C@H](COP(=O)(O)O)NC(=O)[C@@H](N)CC(=O)O)C(=O)N[C@@H](Cc1c[nH]cn1)C(=O)N[C@@H](CO)C(N)=O [D-pS-GIHS-NH2] (H-D[pS]GIHS-NH2),> 100
7,NC(=O)C[C@H](NC(=O)CNC(=O)[C@H](COP(=O)(O)O)NC(=O)[C@@H](N)CC(=O)O)C(=O)N[C@@H](Cc1ccccc1)C(=O)N[C@@H](CCC(=O)O)C(N)=O [D-pS-GNFE-NH2] (H-D[pS]GNFE-NH2),> 100
8,CC[C@H](C)[C@H](NC(=O)CNC(=O)[C@H](COP(=O)(O)O)NC(=O)[C@@H](N)CCC(=O)O)C(=O)N[C@@H](Cc1ccccc1)C(=O)N[C@@H](CCC(=O)O)C(N)=O [E-pS-GIFE-NH2] (H-E[pS]GIFE-NH2),34.5
9,C[C@H](NC(=O)[C@@H](N)CCC(=O)O)C(=O)N[C@@H](Cc1cccc(F)c1)C(=O)N[C@@H](Cc1ccc([N+](=O)[O-])cc1)C(=O)N[C@@H](CCC(=O)O)C(N)=O [EA-F(3F)-F(4NO2)-E-NH2],> 100
10,NC(=O)[C@H](CCC(=O)O)NC(=O)[C@H](Cc1cccc2ccccc12)NC(=O)[C@H](Cc1cccc(F)c1)NC(=O)CNC(=O)[C@@H](N)CCC(=O)O [EG-F(3F)-1Nal-E-NH2] (H-EG[Phe(3-F)][1Nal]E-NH2),> 100
11,NC(=O)[C@H](CCC(=O)O)NC(=O)[C@H](Cc1cccc2ccccc12)NC(=O)[C@H](Cc1ccc([N+](=O)[O-])cc1)NC(=O)CNC(=O)[C@@H](N)CCC(=O)O [EG-F(4NO2)-1Nal-E-NH2] (H-EG[Phe(4-NO2)][1Nal]E-NH2),> 100
12,NC(=O)[C@H](CCC(=O)O)NC(=O)[C@H](Cc1cccc2ccccc12)NC(=O)[C@H](Cc1ccc(O)cc1)NC(=O)CNC(=O)[C@@H](N)CCC(=O)O [EGY-1Nal-E-NH2] (H-EGY[1Nal]E-NH2),> 100
13,NC(=O)[C@H](CCC(=O)O)NC(=O)[C@H](Cc1ccc([N+](=O)[O-])cc1)NC(=O)[C@H](Cc1ccc(O)cc1)NC(=O)CNC(=O)[C@@H](N)CCC(=O)O [EGY-F(4NO2)-E-NH2] (H-EGY[Phe(4-NO2)]E-NH2),> 100
14,NC(=O)[C@H](CCC(=O)O)NC(=O)[C@H](Cc1ccc([N+](=O)[O-])cc1)NC(=O)[C@H](Cc1cccc(F)c1)NC(=O)CNC(=O)[C@H](CCC(=O)O)NC(=O)/C=C/C(=O)O [Fum-EG-F(3F)-F(4NO2)-E-NH2] (Fumaroyl-EG[Phe(3-F)][Phe(4-NO2)]E-NH2),60.4
15,CC[C@H](C)[C@H](NC(=O)CNC(=O)[C@H](COP(=O)(O)O)NC(=O)[C@H](CC(=O)O)NC(=O)CN)C(=O)N[C@@H](Cc1c[nH]cn1)C(=O)N[C@@H](CO)C(N)=O [GD-pS-GIHS-NH2] (H-GD[pS]GIHS-NH2),> 100
16,CC[C@H](C)[C@H](NC(=O)[C@H](Cc1c[nH]cn1)NC(=O)CNC(=O)[C@H](CO)NC(=O)[C@H](COP(=O)(O)O)NC(=O)[C@H](CC(=O)O)NC(=O)[C@@H](N)CC(C)C)C(=O)N[C@@H](CO)C(N)=O [LD-pS-SGHIS-NH2] (H-LD[pS]SGHIS-NH2),> 100
17,C[C@H](NC(=O)c1ccccc1C(=O)O)C(=O)NCC(=O)N[C@@H](Cc1ccccc1)C(=O)N[C@@H](Cc1ccccc1)C(=O)N[C@@H](CCC(=O)O)C(N)=O [Phth-AGFFE-NH2] ({Benzoyl(2-COOH)}-AGFFE-NH2),> 100
18,CC[C@H](C)[C@H](NC(=O)CNC(=O)[C@H](C)NC(=O)c1ccccc1C(=O)O)C(=O)N[C@@H](Cc1ccccc1)C(=O)N[C@@H](CCC(=O)O)C(N)=O [Phth-AGIFE-NH2] ({Benzoyl(2-COOH)}-AGIFE-NH2),> 100
19,CC[C@H](C)[C@H](NC(=O)CNC(=O)[C@H](CCC(=O)O)NC(=O)c1ccccc1C(=O)O)C(=O)N[C@@H](Cc1ccccc1)C(=O)N[C@@H](CCC(=O)O)C(N)=O [Phth-EGIFE-NH2] ({Benzoyl(2-COOH)}-EGIFE-NH2),> 100
20,NC(=O)CC[C@H](N)C(=O)NCC(=O)N[C@@H](Cc1cccc(F)c1)C(=O)N[C@@H](Cc1ccc([N+](=O)[O-])cc1)C(=O)N[C@@H](CCC(=O)O)C(N)=O [QG-F(3F)-F(4NO2)-E-NH2],> 100
21,C[C@H](NC(=O)CCC(=O)O)C(=O)NCC(=O)N[C@@H](Cc1cccc(F)c1)C(=O)N[C@@H](Cc1ccc([N+](=O)[O-])cc1)C(=O)N[C@@H](CCC(=O)O)C(N)=O [Suc-AG-F(3F)-F(4NO2)-E-NH2] (Suc-AG[Phe(3-F)][Phe(4-NO2)]E-NH2),8.01
22,C[C@H](NC(=O)CCC(=O)O)C(=O)NCC(=O)N[C@@H](Cc1ccccc1)C(=O)N[C@@H](Cc1ccccc1)C(=O)N[C@@H](CCC(=O)O)C(N)=O [Suc-AGFFE-NH2] (Suc-AGFFE-NH2),> 100
23,CC[C@H](C)[C@H](NC(=O)CNC(=O)[C@H](C)NC(=O)CCC(=O)O)C(=O)N[C@@H](Cc1ccccc1)C(=O)N[C@@H](CCC(=O)O)C(N)=O [Suc-AGIFE-NH2] (Suc-AGIFE-NH2),> 100
24,C[C@H](NC(=O)CCC(=O)O)C(=O)NCC(=O)N[C@@H](Cc1ccc(O)cc1)C(=O)N[C@@H](Cc1ccccc1)C(=O)N[C@@H](CCC(=O)O)C(N)=O [Suc-AGYFE-NH2],22.2
25,C[C@H](NC(=O)[C@H](CCC(=O)O)NC(=O)CCC(=O)O)C(=O)N[C@@H](Cc1cccc(F)c1)C(=O)N[C@@H](Cc1ccc([N+](=O)[O-])cc1)C(=O)N[C@@H](CCC(=O)O)C(N)=O [Suc-EA-F(3F)-F(4NO2)-E-NH2],27.5
26,C[C@H](NC(=O)[C@H](CCC(=O)O)NC(=O)CCC(=O)O)C(=O)N[C@@H](Cc1ccccc1)C(=O)N[C@@H](Cc1ccccc1)C(=O)N[C@@H](CCC(=O)O)C(N)=O [Suc-EAFFE-NH2],59.8
27,C[C@H](NC(=O)[C@H](CCC(=O)O)NC(=O)CCC(=O)O)C(=O)N[C@@H](Cc1ccc(O)cc1)C(=O)N[C@@H](Cc1ccccc1)C(=O)N[C@@H](CCC(=O)O)C(N)=O [Suc-EAYFE-NH2],82.1
28,NC(=O)[C@H](CCC(=O)O)NC(=O)[C@H](Cc1cccc2ccccc12)NC(=O)[C@H](Cc1cccnc1)NC(=O)CNC(=O)[C@H](CCC(=O)O)NC(=O)CCC(=O)O [Suc-EG-3Pal-1Nal-E-NH2] (Suc-EG[3Pal][1Nal]E-NH2),3.63
